# PMC10743929, “Amphiphilic Sialic Acid Derivatives as Potential Dual-Specific Inhibitors of Influenza Hemagglutinin and Neuraminidase” (International Journal of Molecular Sciences, 2023)
# Read-outs that look alike come from different tables or passages of the source.
# Key:
# IAV (A/H1N1) = assay: CPE reduction assay, influenza A/H1N1 in MDCK cells; format: cell-based, influenza A virus A/H1N1 (A/Virginia/ATCC3/2009 or A/PR/8); conditions: Influenza A virus, H1N1, 72 h
# Procedure: (§1) The process of CPE reduction assay for the influenza virus was described previously. The virus strains were A/Virginia/ATCC3/2009, A/PR/8 (A/H1N1), A/Victoria/361/11, A/HK/7/87 (A/H3N2), and B/Ned/537/05 (IBV). On day 0, Madin-Darby canine kidney (MDCK) cells in 96-well plates were infected with influenza virus at a multiplicity of infection (MOI) of 0.0004 plaque forming units (PFU) per cell, and that was incubated at 35 °C for 3 days. After the third day, virus-induced CPE and compound cytotoxicity were scored by microscopy, and the data were confirmed by formazan-based MTS cell viability assay (CellTiter 96® AQueous One Solution Cell Proliferation Assay from Promega, Madison, WI, USA). […] Compound cytotoxicity was expressed as the concentration of the compound causing minimal changes in cell morphology (MCC) and 50% cytotoxic concentration (CC50) based on the MTS assay.
# IAV (A/H3N2) = assay: CPE reduction assay, influenza A/H3N2 in MDCK cells; format: cell-based, influenza A virus A/H3N2 (A/Victoria/361/11 or A/HK/7/87); conditions: Influenza A virus, H3N2, 72 h
# Procedure: as §1
# IBV = assay: CPE reduction assay, influenza B in MDCK cells; format: cell-based, influenza B virus (B/Ned/537/05); conditions: Influenza B virus, 72 h
# Procedure: as §1
# in vitro = conditions: dog
# [1] = test system: Madin-Darby canine kidney (MDCK) cells; assay: Compound cytotoxicity in MDCK cells (microscopy, MTS); conditions: microscopically visible alterations in cell morphology
smiles,measurement,setting,value
"CC(=O)N[C@H]1[C@H]([C@H](O)[C@H](O)CO)OC(C(=O)O)=C[C@@H]1N=C(N)N [Zanamivir, reference compound]",EC50,"IAV (A/H1N1); MTS cell viability assay, day 3, read-out: Antiviral EC50, IAV (A/H1N1), MTS",8.5 ± 3.4 µM
same,EC50,"IAV (A/H1N1); microscopic scoring of cytopathic effect, day 3, read-out: Antiviral EC50, IAV (A/H1N1), CPE",10 ± 3 µM
same,EC50,"IAV (A/H3N2); MTS cell viability assay, day 3, read-out: Antiviral EC50, IAV (A/H3N2), MTS",1 µM
same,EC50,"IAV (A/H3N2); microscopic scoring of cytopathic effect, day 3, read-out: Antiviral EC50, IAV (A/H3N2), CPE",1.6 µM
same,EC50,"IBV; MTS cell viability assay, day 3, read-out: Antiviral EC50, IBV, MTS",4.5 µM
same,EC50,"IBV; microscopic scoring of cytopathic effect, day 3, read-out: Antiviral EC50, IBV, CPE",2.1 µM
same,CC50,in vitro,> 100 µM
same,Cytotoxicity MCC (minimum cytotoxic concentration),[1],>100 µM
